In ChEMBL document CHEMBL4665770, “Design and Discovery of Natural Cyclopeptide Skeleton Based Programmed Death Ligand 1 Inhibitor as Immune Modulator for Cancer Therapy” (J Med Chem, 2020) one finds inhibition data, which are given here for 20 compounds.

In the assay the target is Programmed cell death protein 1/Programmed cell death 1 ligand 1 (Homo sapiens) (UniProt Q15116+Q9NZQ7). The assay can be described thus: Inhibition of PD1-Tag2/PD-L1-Tag1 (unknown origin) protein-protein interaction at 20 uM preincubated for 15 mins followed by addition of anti-Tag1-Eu3+ and anti-Tag2-XL665 measured after 3 hrs by HTRF assay relative to control. Format: protein-complex assay. Conditions: time 195.0 min.

Square brackets hold non-standard residues; d marks the D form. Peptide text beside a SMILES is read from it.

Take `CC(C)C[C@@H]1NC(=O)[C@H](CC(=O)O)NC(=O)[C@H]([C@@H](C)O)NC(=O)[C@@H]2CCCN2C(=O)[C@@H](Cc2ccccc2)NC(=O)[C@H](CC(C)C)NC(=O)[C@H](CCCCN)NC(=O)[C@H](C(C)C)NC(=O)[C@@H]2CCCN2C(=O)[C@@H](Cc2ccccc2)NC1=O` (cyclo(DL[dF]PVKL[dF]PT)): the inhibition was 3.52%.
In the case of `CC(C)C[C@@H]1NC(=O)[C@H](CCCNC(=N)N)NC(=O)[C@H](C(C)C)NC(=O)[C@@H]2CCCN2C(=O)[C@@H](Cc2ccccc2)NC(=O)[C@H](CC(C)C)NC(=O)[C@H]([C@@H](C)O)NC(=O)[C@@H]2CCCN2C(=O)[C@@H](Cc2ccccc2)NC(=O)[C@H](CC(=O)O)NC1=O` (cyclo(D[dF]PTL[dF]PVRL)), the inhibition is -2.13%.
With `CC(C)C[C@@H]1NC(=O)[C@H](CCCNC(=N)N)NC(=O)[C@H](C(C)C)NC(=O)[C@@H]2CCCN2C(=O)[C@@H](Cc2ccccc2)NC(=O)[C@H](C)NC(=O)[C@H](C)NC(=O)[C@H](C(C)C)NC(=O)[C@@H]2CCCN2C(=O)[C@@H](Cc2ccccc2)NC1=O` (cyclo(AA[dF]PVRL[dF]PV)), the inhibition is 16.7%.
In the case of `CC(C)C[C@@H]1NC(=O)[C@H](CCCNC(=N)N)NC(=O)[C@H](C(C)C)NC(=O)[C@@H]2CCCN2C(=O)[C@@H](Cc2ccccc2)NC(=O)[C@H](CC(C)C)NC(=O)[C@H](CCCNC(=N)N)NC(=O)[C@H](C(C)C)NC(=O)[C@H](C)NC(=O)[C@@H](Cc2ccccc2)NC1=O` (cyclo(L[dF]AVRL[dF]PVR)), the inhibition stood at 27.2%.
The value for `CC(NCCCC[C@@H]1NC(=O)[C@@H]2CCCN2C(=O)[C@@H](Cc2ccccc2)NC(=O)[C@H](CC(C)C)NC(=O)[C@H](CC(=O)O)NC(=O)[C@H]([C@@H](C)O)NC(=O)[C@@H]2CCCN2C(=O)[C@@H](Cc2c[nH]c3ccccc23)NC(=O)[C@H](CC(C)C)NC(=O)[C@H](CCCNC(=N)N)NC1=O)=C1C(=O)CC(C)(C)CC1=O` was 13.1%.
The value for `CC(C)C[C@@H]1NC(=O)[C@H](CCCNC(=N)N)NC(=O)[C@H](C(C)C)NC(=O)[C@@H]2CCCN2C(=O)[C@@H](Cc2ccccc2)NC(=O)[C@H](C)NC(=O)[C@H](CCCNC(=N)N)NC(=O)[C@H](C(C)C)NC(=O)[C@@H]2CCCN2C(=O)[C@@H](Cc2ccccc2)NC1=O` (cyclo(A[dF]PVRL[dF]PVR)) was 21%; that for `CC(C)C[C@@H]1NC(=O)[C@H](CCCNC(=N)N)NC(=O)[C@H](C(C)C)NC(=O)[C@@H]2CCCN2C(=O)[C@@H](Cc2ccccc2)NC(=O)[C@H](CC(C)C)NC(=O)[C@H]([C@@H](C)O)NC(=O)[C@H](CC(=O)O)NC(=O)[C@@H]2CCCN2C(=O)[C@@H](Cc2ccccc2)NC1=O` (cyclo(DTL[dF]PVRL[dF]P)) was 23.9%; that for `CC(C)C[C@@H]1NC(=O)[C@H](CC(=O)O)NC(=O)[C@H]([C@@H](C)O)NC(=O)[C@@H]2CCCN2C(=O)[C@@H](Cc2ccccc2)NC(=O)[C@H](CC(C)C)NC(=O)[C@H](CC(=O)O)NC(=O)[C@H](C(C)C)NC(=O)[C@@H]2CCCN2C(=O)[C@@H](Cc2ccccc2)NC1=O` was -6.65%.
In the case of `CC(C)C[C@@H]1NC(=O)[C@H](COP(=O)(O)O)NC(=O)[C@H]([C@@H](C)O)NC(=O)[C@@H]2CCCN2C(=O)[C@@H](Cc2ccccc2)NC(=O)[C@H](CC(C)C)NC(=O)[C@H](CCCNC(=N)N)NC(=O)[C@H](C(C)C)NC(=O)[C@@H]2CCCN2C(=O)[C@@H](Cc2ccccc2)NC1=O`, the inhibition amounted to 26%.
Next, `CC(C)C[C@@H]1NC(=O)[C@H](CCCNC(=N)N)NC(=O)[C@H](C(C)C)NC(=O)[C@@H]2CCCN2C(=O)[C@@H](Cc2ccccc2)NC(=O)[C@H](CC(C)C)NC(=O)[C@H](CCCNC(=N)N)NC(=O)[C@H](C)NC(=O)[C@@H]2CCCN2C(=O)[C@@H](Cc2ccccc2)NC1=O` (cyclo(ARL[dF]PVRL[dF]P)): 22.4%; `CC(C)C[C@@H]1NC(=O)[C@H](CCCNC(=N)N)NC(=O)[C@H](C)NC(=O)[C@@H]2CCCN2C(=O)[C@@H](Cc2ccccc2)NC(=O)[C@H](C)NC(=O)[C@H](CCCNC(=N)N)NC(=O)[C@H](C(C)C)NC(=O)[C@@H]2CCCN2C(=O)[C@@H](Cc2ccccc2)NC1=O` (cyclo(ARL[dF]PVRA[dF]P)): 6.3%; `CC(C)C[C@@H]1NC(=O)[C@H](CC(=O)O)NC(=O)[C@H]([C@@H](C)O)NC(=O)[C@@H]2CCCN2C(=O)[C@@H](Cc2ccccc2)NC(=O)[C@H](CC(C)C)NC(=O)[C@H](CCC(N)=O)NC(=O)[C@H](C(C)C)NC(=O)[C@@H]2CCCN2C(=O)[C@@H](Cc2ccccc2)NC1=O` (cyclo(DL[dF]PVQL[dF]PT)): 47.5%.
Turning to `CC(C)C[C@@H]1NC(=O)[C@H](CCCNC(=N)N)NC(=O)[C@H](C(C)C)NC(=O)[C@@H]2CCCN2C(=O)[C@@H](Cc2ccccc2)NC(=O)[C@H](C)NC(=O)[C@H](CC(=O)O)NC(=O)[C@H]([C@@H](C)O)NC(=O)[C@@H]2CCCN2C(=O)[C@@H](Cc2ccccc2)NC1=O` (cyclo(A[dF]PVRL[dF]PTD)), the inhibition was -5.69%.
The value for `CC(C)C[C@@H]1NC(=O)[C@H](CC(=O)O)NC(=O)[C@H]([C@@H](C)O)NC(=O)[C@@H]2CCCN2C(=O)[C@@H](Cc2ccccc2)NC(=O)[C@H](CC(N)=O)NC(=O)[C@H](CCCNC(=N)N)NC(=O)[C@H](C(C)C)NC(=O)[C@@H]2CCCN2C(=O)[C@@H](Cc2ccccc2)NC1=O` (cyclo(DL[dF]PVRN[dF]PT)) was 17.4%.
With `CC(C)C[C@@H]1NC(=O)[C@H](CCCNC(=N)N)NC(=O)[C@H](C(C)C)NC(=O)[C@@H]2CCCN2C(=O)[C@@H](Cc2ccccc2)NC(=O)[C@H](C)NC(=O)[C@H](CCC(=O)O)NC(=O)[C@H](C)NC(=O)[C@@H]2CCCN2C(=O)[C@@H](Cc2ccccc2)NC1=O`, the inhibition is -6.08%.
`CC(C)C[C@@H]1NC(=O)[C@H](CC(=O)O)NC(=O)[C@H](C(C)C)NC(=O)[C@@H]2CCCN2C(=O)[C@@H](Cc2ccccc2)NC(=O)[C@H](C)NC(=O)[C@H](CCCNC(=N)N)NC(=O)[C@H](C)NC(=O)[C@@H]2CCCN2C(=O)[C@@H](Cc2ccccc2)NC1=O` (cyclo(ARA[dF]PVDL[dF]P)): the inhibition stood at 33.7%.
Regarding `CC(C)C[C@@H]1NC(=O)[C@H](CC(=O)O)NC(=O)[C@H]([C@@H](C)O)NC(=O)[C@@H]2CCCN2C(=O)[C@@H](Cc2c[nH]c3ccccc23)NC(=O)[C@H](CC(C)C)NC(=O)[C@H](CCCNC(=N)N)NC(=O)[C@H](C(C)C)NC(=O)[C@@H]2CCCN2C(=O)[C@@H](Cc2ccccc2)NC1=O` (cyclo(DL[dF]PVRL[dW]PT)), the inhibition is 43.4%.
As for `CC(C)C[C@@H]1NC(=O)[C@H](CC(=O)O)NC(=O)[C@H](C(C)C)NC(=O)[C@@H]2CCCN2C(=O)[C@@H](Cc2ccccc2)NC(=O)[C@H](CC(C)C)NC(=O)[C@H](CCCNC(=N)N)NC(=O)[C@H](CCC(=O)O)NC(=O)[C@@H]2CCCN2C(=O)[C@@H](Cc2ccccc2)NC1=O`, the inhibition was -3.03%.
With `CC(C)C[C@@H]1NC(=O)[C@H](CCCNC(=N)N)NC(=O)[C@H](C(C)C)NC(=O)[C@H](CC(C)C)NC(=O)[C@@H](Cc2ccccc2)NC(=O)[C@H](C)NC(=O)[C@H](CCCNC(=N)N)NC(=O)[C@H](C(C)C)NC(=O)[C@@H]2CCCN2C(=O)[C@@H](Cc2ccccc2)NC1=O` (cyclo(A[dF]LVRL[dF]PVR)), the inhibition came out at 11.2%.
Next, `CC(C)C[C@@H]1NC(=O)[C@H](CCCNC(=N)N)NC(=O)[C@H](CC(=O)O)NC(=O)[C@H](C(C)C)NC(=O)[C@@H]2CCCN2C(=O)[C@@H](Cc2ccccc2)NC(=O)[C@H](CC(C)C)NC(=O)[C@H]([C@@H](C)O)NC(=O)[C@@H]2CCCN2C(=O)[C@@H](Cc2ccccc2)NC1=O` (cyclo(DRL[dF]PTL[dF]PV)): -4.8%.
